Data from ChEMBL document CHEMBL1138883, “Synthesis and biological evaluation of new asymmetrical bisintercalators as potential antitumor drugs” (2006).
Active and inactive are the calls of the source. The calls are words filed in the database; no cut-off is given here.

Columns and labels:
[1] = Ratio of K(app) for [A-T] to [G-C]
PC-3 [2] = test: Cytotoxicity against PC3 cells by SRB assay after 48 hrs; assay type: functional; settings: Homo sapiens, PC-3, 48 h
PC-3 [3] = test: Reduction in PC3 cell viability after 48 hrs by FDA flow cytometer assay; assay type: functional, cell-based; settings: Homo sapiens
PC-3 [4] = test: Induction of apoptosis in PC3 cells by DNA fragmentation assay; assay type: functional, cell-based; settings: Homo sapiens
PC-3 [5] = test: Induction of apoptosis in PC3 measured as percentage of early apoptotic cells by biparametric PI/Annexin V assay at 5.1 uM after 8 hrs; assay type: functional, Homo sapiens
PC-3 [6] = test: Induction of apoptosis in PC3 measured as percentage of early apoptotic cells by biparametric PI/Annexin V assay at 5.1 uM after 24 hrs; assay type: functional, Homo sapiens
PC-3 [7] = test: Induction of apoptosis in PC3 measured as percentage of early apoptotic cells by biparametric PI/Annexin V assay at 5.1 uM after 48 hrs; assay type: functional, Homo sapiens
PC-3 [8] = test: Induction of apoptosis in PC3 measured as percentage of late apoptotic cells by biparametric PI/Annexin V assay at 5.1 uM after 4 hrs; assay type: functional, Homo sapiens
PC-3 [9] = test: Induction of apoptosis in PC3 measured as percentage of late apoptotic cells by biparametric PI/Annexin V assay at 5.1 uM after 8 hrs; assay type: functional, Homo sapiens
PC-3 [10] = test: Induction of apoptosis in PC3 measured as percentage of late apoptotic cells by biparametric PI/Annexin V assay at 5.1 uM after 24 hrs; assay type: functional, Homo sapiens
PC-3 [11] = test: Induction of apoptosis in PC3 measured as percentage of late apoptotic cells by biparametric PI/Annexin V assay at 5.1 uM after 48 hrs; assay type: functional, Homo sapiens
PC-3 [12] = test: Induction of apoptosis in PC3 cells measured as percentage of living cells by biparametric PI/Annexin V assay at 5.1 uM after 4 hrs; assay type: functional, Homo sapiens
PC-3 [13] = test: Induction of apoptosis in PC3 cells measured as percentage of living cells by biparametric PI/Annexin V assay at 5.1 uM after 8 hrs; assay type: functional, Homo sapiens
PC-3 [14] = test: Induction of apoptosis in PC3 cells measured as percentage of living cells by biparametric PI/Annexin V assay at 5.1 uM after 24 hrs; assay type: functional, Homo sapiens
PC-3 [15] = test: Induction of apoptosis in PC3 cells measured as percentage of living cells by biparametric PI/Annexin V assay at 5.1 uM after 48 hrs; assay type: functional, Homo sapiens
PC-3 [16] = test: Induction of apoptosis in PC3 measured as percentage of necrotic cells by biparametric PI/Annexin V assay at 5.1 uM after 4 hrs; assay type: functional, Homo sapiens
PC-3 [17] = test: Induction of apoptosis in PC3 measured as percentage of necrotic cells by biparametric PI/Annexin V assay at 5.1 uM after 8 hrs; assay type: functional, Homo sapiens
PC-3 [18] = test: Induction of apoptosis in PC3 measured as percentage of necrotic cells by biparametric PI/Annexin V assay at 5.1 uM after 24 hrs; assay type: functional, Homo sapiens
PC-3 [19] = test: Induction of apoptosis in PC3 measured as percentage of necrotic cells by biparametric PI/Annexin V assay at 5.1 uM after 48 hrs; assay type: functional, Homo sapiens
PC-3 [20] = test: Induction of apoptosis in PC3 measured as percentage of early apoptotic cells by biparametric PI/Annexin V assay at 5.1 uM after 4 hrs; assay type: functional, Homo sapiens
PC-3 [21] = test: Induction of apoptosis in PC3 measured as percentage of late apoptotic cells by biparametric PI/Annexin V assay at 2.6 uM after 48 hrs; assay type: functional, Homo sapiens
PC-3 [22] = test: Induction of apoptosis in PC3 measured as percentage of late apoptotic cells by biparametric PI/Annexin V assay at 2.6 uM after 24 hrs; assay type: functional, Homo sapiens
PC-3 [23] = test: Induction of apoptosis in PC3 measured as percentage of late apoptotic cells by biparametric PI/Annexin V assay at 2.6 uM after 8 hrs; assay type: functional, Homo sapiens
PC-3 [24] = test: Induction of apoptosis in PC3 measured as percentage of late apoptotic cells by biparametric PI/Annexin V assay at 2.6 uM after 4 hrs; assay type: functional, Homo sapiens
PC-3 [25] = test: Induction of apoptosis in PC3 measured as percentage of early apoptotic cells by biparametric PI/Annexin V assay at 2.6 uM after 48 hrs; assay type: functional, Homo sapiens
PC-3 [26] = test: Induction of apoptosis in PC3 cells measured as percentage of living cells by biparametric PI/Annexin V assay at 2.6 uM after 4 hrs; assay type: functional, Homo sapiens
PC-3 [27] = test: Induction of apoptosis in PC3 cells measured as percentage of living cells by biparametric PI/Annexin V assay at 2.6 uM after 8 hrs; assay type: functional, Homo sapiens
PC-3 [28] = test: Induction of apoptosis in PC3 cells measured as percentage of living cells by biparametric PI/Annexin V assay at 2.6 uM after 24 hrs; assay type: functional, Homo sapiens
PC-3 [29] = test: Induction of apoptosis in PC3 cells measured as percentage of living cells by biparametric PI/Annexin V assay at 2.6 uM after 48 hrs; assay type: functional, Homo sapiens
PC-3 [30] = test: Induction of apoptosis in PC3 measured as percentage of necrotic cells by biparametric PI/Annexin V assay at 2.6 uM after 4 hrs; assay type: functional, Homo sapiens
PC-3 [31] = test: Induction of apoptosis in PC3 measured as percentage of necrotic cells by biparametric PI/Annexin V assay at 2.6 uM after 8 hrs; assay type: functional, Homo sapiens
PC-3 [32] = test: Induction of apoptosis in PC3 measured as percentage of necrotic cells by biparametric PI/Annexin V assay at 2.6 uM after 24 hrs; assay type: functional, Homo sapiens
PC-3 [33] = test: Induction of apoptosis in PC3 measured as percentage of necrotic cells by biparametric PI/Annexin V assay at 2.6 uM after 48 hrs; assay type: functional, Homo sapiens
PC-3 [34] = test: Induction of apoptosis in PC3 measured as percentage of early apoptotic cells by biparametric PI/Annexin V assay at 2.6 uM after 4 hrs; assay type: functional, Homo sapiens
PC-3 [35] = test: Induction of apoptosis in PC3 measured as percentage of early apoptotic cells by biparametric PI/Annexin V assay at 2.6 uM after 8 hrs; assay type: functional, Homo sapiens
PC-3 [36] = test: Induction of apoptosis in PC3 measured as percentage of early apoptotic cells by biparametric PI/Annexin V assay at 2.6 uM after 24 hrs; assay type: functional, Homo sapiens
PC-3 [37] = test: Induction of early apoptosis in PC3 cells by DNA fragmentation assay; assay type: functional, cell-based; settings: Homo sapiens
PC-3 [38] = test: Induction of apoptosis in PC3 cells measured as percentage of living cells by biparametric PI/Annexin V assay at 1.6 uM after 4 hrs; assay type: functional, Homo sapiens
PC-3 [39] = test: Induction of necrosis in PC3 cells by DNA fragmentation assay; assay type: functional, cell-based; settings: Homo sapiens
PC-3 [40] = test: Induction of apoptosis in PC3 cells measured as percentage of living cells by biparametric PI/Annexin V assay at 1.6 uM after 8 hrs; assay type: functional, Homo sapiens
PC-3 [41] = test: Induction of apoptosis in PC3 cells measured as percentage of living cells by biparametric PI/Annexin V assay at 1.6 uM after 24 hrs; assay type: functional, Homo sapiens
PC-3 [42] = test: Induction of apoptosis in PC3 cells measured as percentage of living cells by biparametric PI/Annexin V assay at 1.6 uM after 48 hrs; assay type: functional, Homo sapiens
PC-3 [43] = test: Induction of apoptosis in PC3 measured as percentage of necrotic cells by biparametric PI/Annexin V assay at 1.6 uM after 4 hrs; assay type: functional, Homo sapiens
PC-3 [44] = test: Induction of apoptosis in PC3 measured as percentage of necrotic cells by biparametric PI/Annexin V assay at 1.6 uM after 8 hrs; assay type: functional, Homo sapiens
PC-3 [45] = test: Induction of apoptosis in PC3 measured as percentage of necrotic cells by biparametric PI/Annexin V assay at 1.6 uM after 24 hrs; assay type: functional, Homo sapiens
PC-3 [46] = test: Induction of apoptosis in PC3 measured as percentage of necrotic cells by biparametric PI/Annexin V assay at 1.6 uM after 48 hrs; assay type: functional, Homo sapiens
PC-3 [47] = test: Induction of apoptosis in PC3 measured as percentage of early apoptotic cells by biparametric PI/Annexin V assay at 1.6 uM after 4 hrs; assay type: functional, Homo sapiens
PC-3 [48] = test: Induction of apoptosis in PC3 measured as percentage of early apoptotic cells by biparametric PI/Annexin V assay at 1.6 uM after 8 hrs; assay type: functional, Homo sapiens
PC-3 [49] = test: Induction of apoptosis in PC3 measured as percentage of early apoptotic cells by biparametric PI/Annexin V assay at 1.6 uM after 24 hrs; assay type: functional, Homo sapiens
PC-3 [50] = test: Induction of apoptosis in PC3 measured as percentage of early apoptotic cells by biparametric PI/Annexin V assay at 1.6 uM after 48 hrs; assay type: functional, Homo sapiens
PC-3 [51] = test: Induction of apoptosis in PC3 measured as percentage of late apoptotic cells by biparametric PI/Annexin V assay at 1.6 uM after 4 hrs; assay type: functional, Homo sapiens
PC-3 [52] = test: Induction of apoptosis in PC3 measured as percentage of late apoptotic cells by biparametric PI/Annexin V assay at 1.6 uM after 8 hrs; assay type: functional, Homo sapiens
PC-3 [53] = test: Induction of apoptosis in PC3 measured as percentage of late apoptotic cells by biparametric PI/Annexin V assay at 1.6 uM after 24 hrs; assay type: functional, Homo sapiens
PC-3 [54] = test: Induction of apoptosis in PC3 measured as percentage of late apoptotic cells by biparametric PI/Annexin V assay at 1.6 uM after 48 hrs; assay type: functional, Homo sapiens

SMILES: Cc1ccc2c(c1)c(=O)c1c(NCCCN(C)CCCN3C(=O)c4cccc5cccc(c45)C3=O)ccc3nnn2c31.Cl
- Selectivity ratio [1]: 1.7
- GI50 (PC-3 [2]): 17 nM
- LC50 (concentration for 50% net cell kill) (PC-3 [2]): 5100 nM
- TGI (PC-3 [2]): 1600 nM
- Activity (PC-3 [3]): Time-dependent effect
- Activity (PC-3 [4]): Active
- Activity (PC-3 [5]): 1.3%
- Activity (PC-3 [6]): 39%
- Activity (PC-3 [7]): 57%
- Activity (PC-3 [8]): 1.1%
- Activity (PC-3 [9]): 1.9%
- Activity (PC-3 [10]): 16.1%
- Activity (PC-3 [11]): 15.7%
- Activity (PC-3 [12]): 69.4%
- Activity (PC-3 [13]): 54.8%
- Activity (PC-3 [14]): 11.9%
- Activity (PC-3 [15]): 1%
- Activity (PC-3 [16]): 28.6%
- Activity (PC-3 [17]): 42%
- Activity (PC-3 [18]): 33%
- Activity (PC-3 [19]): 27.3%
- Activity (PC-3 [20]): 0.9%

SMILES: CN(C)CCn1c(=O)c2ccc(NCCCN(C)CCCN3C(=O)c4cccc5cc([N+](=O)[O-])cc(c45)C3=O)c3c(=O)c4ccccc4n(c1=O)c23.Cl
- Selectivity ratio [1]: 4.3
- LC50 (concentration for 50% net cell kill) (PC-3 [2]): 2600 nM
- Activity (PC-3 [3]): Time-dependent effect
- Activity (PC-3 [21]): 7.5%
- Activity (PC-3 [22]): 6.3%
- Activity (PC-3 [23]): 7.8%
- Activity (PC-3 [24]): 3.5%
- Activity (PC-3 [25]): 4%
- Activity (PC-3 [26]): 67.7%
- Activity (PC-3 [27]): 49%
- Activity (PC-3 [28]): 31.5%
- Activity (PC-3 [29]): 1.2%
- Activity (PC-3 [30]): 16.3%
- Activity (PC-3 [31]): 26.9%
- Activity (PC-3 [32]): 28.6%
- Activity (PC-3 [33]): 87.3%
- Activity (PC-3 [34]): 12.5%
- Activity (PC-3 [35]): 16.3%
- Activity (PC-3 [36]): 33.6%
- Activity (PC-3 [37]): Active

SMILES: CN(C)CCNC(=O)c1ccc(NCCCN(C)CCCNc2ccc3c(=O)n(CCN(C)C)c(=O)n4c5ccccc5c(=O)c2c34)c2c(O)c3cc([N+](=O)[O-])ccc3nc12.Cl
- Selectivity ratio [1]: 1.9
- GI50 (PC-3 [2]): 7 nM
- LC50 (concentration for 50% net cell kill) (PC-3 [2]): 1600 nM
- TGI (PC-3 [2]): 160 nM
- Activity (PC-3 [3]): Time-dependent effect
- Activity (PC-3 [38]): 66.5%
- Activity (PC-3 [39]): Active
- Activity (PC-3 [40]): 53%
- Activity (PC-3 [41]): 37.5%
- Activity (PC-3 [42]): 5%
- Activity (PC-3 [43]): 28.6%
- Activity (PC-3 [44]): 37.9%
- Activity (PC-3 [45]): 44%
- Activity (PC-3 [46]): 55.7%
- Activity (PC-3 [47]): 1.9%
- Activity (PC-3 [48]): 3.6%
- Activity (PC-3 [49]): 2.9%
- Activity (PC-3 [50]): 4.1%
- Activity (PC-3 [51]): 3%
- Activity (PC-3 [52]): 5.5%
- Activity (PC-3 [53]): 15.6%
- Activity (PC-3 [54]): 35.2%
